Assay results: patent publication US7763638B2, “Substituted 1,2,3,4-tetrahydroisoquinoline derivatives” (Actelion Pharmaceuticals Ltd., priority 2004, dated 2010)

Experiments:
male Wistar rats = test: Spontaneous home cage activity and body temperature measured by radiotelemetry; assay type: in vivo, rat; conditions: oral administration, home cage activity by telemetry
Excerpt: In Vivo Assay: Spontaneous Home Cage Activity and Body Temperature Measured by Radiotelemetry in Laboratory Rats:
The objective of the present test is to record the circadian behavioral activity of rats after oral administration of a compound according to general formula (I) of the invention.
Decreased home cage activity measured by telemetry in male Wistar rats was considered as an indication for sleep-inducing potential of a restricted number of highly optimized 1,2,3,4-tetrahydroisoquinoline derivatives.
Psychotropic drugs such as antidepressants, antipsychotics, sleep inducers or psychostimulants are well known to reduce or enhance home cage activity and body temperature following oral administration to laboratory animals. Thermoregulation is a complex process that contributes to homeostasis by coordinating metabolism, energy balance and behaviour. Body temperature changes with circadian behavioural activity and increases when locomotion increases. These two parameters were measured by telemetry in conscious freely moving Wistar rats. Anaesthetized animals were implanted, under aseptic conditions, with a body temperature/activity telemetric device into the peritoneal cavity. More than two weeks after the implantation of the telemetry system, data were collected at 5 minutes intervals during 96 hours. Hourly means were calculated for each rat. The first 48 h were used as an internal control trace and drug effects were compared to vehicle placebo. This method is validated pharmacologically by measuring amplitude and time course of both hypoactivity and hypothermia induced by GABA-A receptor modulators such as zolpidem.

CYP3A4 = target: T1, CYP3A4 (Homo sapiens, UniProt P08684); test: Inhibitory potency against CYPs in human liver microsomes; assay type: in vitro ADME; conditions: human liver microsomes 0.25 mg/ml, midazolam (5 μM) 1'-hydroxylation, 5 min
T1 construct: performed using human liver microsomes (pool of 10 individuals); from tissue; host or cells: human liver microsomes, pool of 10 individuals
Protocol: Measurements of the Inhibitory Potency Against Different CYPs:
The CYP inhibition studies are performed using human liver microsomes (pool of 10 individuals), literature-established CYP isoform-selective substrates and quantification by either LC-MS/MS (for CYP3A4 and CYP2C9) or conventional HPLC with fluorimetric detection (for CYP2D6). The specific probes were midazolam 1′-hydroxylation for CYP3A4, dextromethorphan 3-hydroxylation for CYP2D6 and diclofenac 4′-hydroxylation for CYP2C9. […] Controls (sulfaphenazole for CYP2C9, fluoxetine for CYP2D6, and nicardipine for CYP3A4) were run in parallel in each plate.

T1 sequence (P08684 whole entry): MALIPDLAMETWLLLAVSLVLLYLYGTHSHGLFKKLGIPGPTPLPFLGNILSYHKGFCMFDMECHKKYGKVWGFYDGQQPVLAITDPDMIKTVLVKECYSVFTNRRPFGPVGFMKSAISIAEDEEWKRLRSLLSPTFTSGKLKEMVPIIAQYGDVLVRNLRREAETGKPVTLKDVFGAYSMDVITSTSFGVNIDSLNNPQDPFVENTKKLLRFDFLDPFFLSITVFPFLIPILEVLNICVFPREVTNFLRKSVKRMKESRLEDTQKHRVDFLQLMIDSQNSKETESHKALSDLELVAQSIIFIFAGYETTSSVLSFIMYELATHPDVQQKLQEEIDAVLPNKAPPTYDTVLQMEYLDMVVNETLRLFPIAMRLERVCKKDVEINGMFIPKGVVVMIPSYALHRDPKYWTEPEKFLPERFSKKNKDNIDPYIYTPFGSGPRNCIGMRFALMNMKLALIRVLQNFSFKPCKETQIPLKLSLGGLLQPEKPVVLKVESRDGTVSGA

Question: For CNC(=O)[C@@H](c1ccccc1)N1CCc2cc(OC)c(OC)cc2[C@@H]1CCc1ccc(C(F)(F)F)cc1 [Example 2, (2R)-2-{(1S)-6,7-dimethoxy-1-[2-(4-trifluoromethyl-phenyl)-ethyl]-3,4-dihydro-1H-isoquinolin-2-yl}-N-methyl-2-phenyl-acetamide], which p.o activity (male Wistar rats) is on record?
Answer: Its p.o activity is “yes”.

Question: With CNC(=O)C(c1ccccc1)N1CCc2cc(OC)c(OC)cc2C1CCc1ccc(C(F)(F)F)cc1 (mixture of isomers) [Example 1, 2-{6,7-dimethoxy-1-[2-(4-trifluoromethyl-phenyl)-ethyl]-3,4-dihydro-1H-isoquinolin-2-yl}-N-methyl-2-phenyl-acetamide] as the compound, how does the p.o activity (male Wistar rats) read?
Answer: The p.o activity was “yes”.

Question: Which p.o activity (male Wistar rats) does the source give for CNC(=O)[C@@H](c1ccccc1)N1CCc2cc(OC)c(OC)cc2[C@@H]1CCc1ccc(C(F)(F)F)nc1 [Example 4, (2R)-2-{(1S)-6,7-dimethoxy-1-[2-(6-trifluoromethyl-pyridin-3-yl)-ethyl]-3,4-dihydro-1H-isoquinolin-2-yl}-N-methyl-2-phenyl-acetamide] here?
Answer: The p.o activity was “yes”.

Question: And the IC50 (CYP3A4)?
Answer: The IC50 was 50 µM.

Question: With CNC(=O)C(c1ccccc1)N1CCc2cc(OC)c(OC)cc2C1CCc1ccc(C(F)(F)F)nc1 (stereo not drawn) [Example 3, 2-{6,7-dimethoxy-1-[2-(6-trifluoromethyl-pyridin-3-yl)-ethyl]-3,4-dihydro-1H-isoquinolin-2-yl}-N-methyl-2-phenyl-acetamide] as the compound, how does the p.o activity (male Wistar rats) read?
Answer: The p.o activity was “yes”.

Question: What about the IC50 (CYP3A4) of the same compound?
Answer: Its IC50 is 18 µM.
